Results taken from patent publication EP0068408A1 (priority 1981, dated 1983).
≈ marks a conversion by molar mass, not a printed value. Read-outs that look alike come from different tables or passages of the source.

Experiments:
Influenza A0 = assay: microbe, parasite or virus in culture; format: cell-based; conditions: virus A = Influenza A0, MDCK, Vero and HEL cells, 2 or 3 days
Influenza A1 = assay: microbe, parasite or virus in culture; format: cell-based
Influenza B = assay: microbe, parasite or virus in culture; format: cell-based
Parainfluenza Type 3 = assay: microbe, parasite or virus in culture; format: cell-based; conditions: virus E = Parainfluenza Type 3
ECHO = assay: microbe, parasite or virus in culture; format: cell-based
Coxsackie Type B5 = assay: microbe, parasite or virus in culture; format: cell-based; conditions: virus G = Coxsackie Type B5
Rhino = assay: microbe, parasite or virus in culture; format: cell-based
influenza A0 virus = assay: animal or person; format: in vivo, mice
[1] = Acute toxicity in mice (LD50); format: in vivo; conditions: ddY male mice, suspended in 5% Arabic gum solution, observed for 7 days; for LD50 at 168 h: mouse, in vivo
Protocol: Experimental Example 7: Acute Toxicity in Mice
Each compound of the invention was suspended in 5% Arabic gum solution and given orally (p.o.) or intraperitoneally (i.p.) to groups of ten ddY male mice weighed from 24 to 26 g at the dosage volume of 10 ml/kg. […] LD50 was determined according to the method of Wilcoxon and Litchfield.

influenza virus B/GL = assay: animal or person; format: in vivo, mice
influenza virus A/WSN = assay: animal or person; format: in vivo, mice; conditions: in Mus musculus, 360 h, read-out: Survival rate
coxsackie virus B1 = test system: coxsackie virus B1; parameters: species or system mice; conditions: mouse, in vivo, po
[2] = test system: parainfluenza virus type 3; parameters: species or system mice; conditions: mouse, in vivo, po
[3] = Mus musculus, 360 h, oral, twice a day for 14 days, survivors at 15th day, read-out: Survival rate
[4] = Mus musculus, ip, 360 h, intraperitoneal, twice a day for 14 days, survivors at 15th day, read-out: Survival rate
[5] = ip, i.p., read-out: LD50 value, Intraperitoneal administration
[6] = po, p.o., read-out: LD50 value, Oral administration
[7] = unidentified influenza virus, in Mus musculus, po, 360 h, read-out: Survival rate

Row | SMILES | MIC (Influenza A0) | MIC (Influenza A1) | MIC (Influenza B) | MIC (Parainfluenza Type 3) | MIC (ECHO) | MIC (Coxsackie Type B5) | MIC (Rhino) | responders at 300 mg/kg (influenza A0 virus; [3]) | responders at 100 mg/kg (influenza A0 virus; [4]) | LD50 at 168 h [1, 5] | LD50 at 168 h [1, 6] | responders at 100 mg/kg (influenza virus B/GL; [7]) | responders at 300 mg/kg (influenza virus B/GL; [7]) | responders at 30 mg/kg (influenza virus A/WSN; ip) | further results
1 | Nc1cc(Cl)c(S(N)(=O)=O)cc1C(=O)O [Compound 14] | 30 µg/mL (≈ 120 µM) | 100 µg/mL (≈ 399 µM) | 300 µg/mL (≈ 1200 µM) | 300 µg/mL (≈ 1200 µM) | 300 µg/mL (≈ 1200 µM) | 300 µg/mL (≈ 1200 µM) | 300 µg/mL (≈ 1200 µM) | 50% | 40% | > 1000 mg/kg | > 3000 mg/kg | – | – | – | –
2 | CC(C)OC(=O)c1ccc(Br)c(S(N)(=O)=O)c1 [Compound 29] | – | – | – | – | – | – | – | – | – | – | – | 30% | 40% | – | LD50 value, Intraperitoneal administration ([1]; i.p.): >1,000 mg/kg; LD50 value, Oral administration ([1]; p.o.): >3,000 mg/kg
3 | CN1CCN(S(=O)(=O)c2cc(C(=O)O)ccc2Cl)CC1 [Compound 13] | 10 µg/mL (≈ 31.4 µM) | 100 µg/mL (≈ 314 µM) | 100 µg/mL (≈ 314 µM) | 300 µg/mL (≈ 941 µM) | 300 µg/mL (≈ 941 µM) | 100 µg/mL (≈ 314 µM) | 300 µg/mL (≈ 941 µM) | 70% | – | > 1000 mg/kg | > 3000 mg/kg | – | – | – | responders at 100 mg/kg (influenza A0 virus; [3]): 50%; responders at 10 mg/kg (influenza A0 virus; Mus musculus, ip, 360 h, intraperitoneal, 10 mg/kg, twice a day for 14 days, survivors at 15th day, read-out: Survival rate): 40%; responders at 30 mg/kg (influenza A0 virus; Mus musculus, ip, 360 h, intraperitoneal, 30 mg/kg, twice a day for 14 days, survivors at 15th day, read-out: Survival rate): 50%; protective action against death due to the infection (influenza A0 virus; result in words, Tables 3 and 4): extremely excellent activity
4 | CCCCCCCCOC(=O)c1cc(S(N)(=O)=O)c(Cl)cc1Cl [Compound 37] | – | – | – | – | – | – | – | – | – | > 1000 mg/kg | > 3000 mg/kg | 80% | – | 60% | responders at 10 mg/kg (influenza virus A/WSN): 50%; responders at 30 mg/kg (influenza virus A/WSN; po): 50%; responders at 100 mg/kg (influenza virus A/WSN; po): 70%; survival rates of the treated groups as compared with the control (influenza virus B/GL; result in words, Table 7): extremely excellent activity; responders at 30 mg/kg (influenza virus B/GL; [7]): 50%; Survival rate (coxsackie virus B1; 300 mg/kg): 50%; Survival rate (coxsackie virus B1; 1000 mg/kg): 80%; Survival rate ([2]; 30 mg/kg): 40%; Survival rate ([2]; 100 mg/kg): 70%
5 | COC(=O)c1cc(S(N)(=O)=O)c(Cl)cc1F [Compound 41] | – | – | – | – | – | – | – | – | – | > 1000 mg/kg | > 3000 mg/kg | 30% | 50% | 30% | responders at 100 mg/kg (influenza virus A/WSN; ip): 50%
6 | O=C(O)c1ccc(Cl)c(S(=O)(=O)NCCO)c1 [Compound 5] | 30 µg/mL (≈ 107 µM) | 300 µg/mL (≈ 1070 µM) | 300 µg/mL (≈ 1070 µM) | 100 µg/mL (≈ 358 µM) | 300 µg/mL (≈ 1070 µM) | 300 µg/mL (≈ 1070 µM) | 300 µg/mL (≈ 1070 µM) | 50% | 40% | > 1000 mg/kg | > 3000 mg/kg | – | – | – | –
